Data from patent publication US8450352B2, “Thiazole compounds and their use for inhibiting phosphodiesterase 4, TNF-α, and IL-4” (Otsuka Pharmaceutical Co., Ltd., priority 2004, dated 2013).

Columns and labels:
[1] = target: T1, human PDE4D (HPDE4D) (Homo sapiens, UniProt Q08499); assay: Confirmatory test for phosphodiesterase (PDE) 4 inhibitory activity; type: biochemical; conditions: concentration that inhibits the PDE4 activity by 50%; PDE4D enzyme solution from transfected COS-7 cells, [3H]cAMP substrate
T1 construct: made in house; host or cells: COS-7 cells (African green monkey kidney), transient transfection; soluble supernatant of the homogenate
T1 sequence (Q08499 whole entry): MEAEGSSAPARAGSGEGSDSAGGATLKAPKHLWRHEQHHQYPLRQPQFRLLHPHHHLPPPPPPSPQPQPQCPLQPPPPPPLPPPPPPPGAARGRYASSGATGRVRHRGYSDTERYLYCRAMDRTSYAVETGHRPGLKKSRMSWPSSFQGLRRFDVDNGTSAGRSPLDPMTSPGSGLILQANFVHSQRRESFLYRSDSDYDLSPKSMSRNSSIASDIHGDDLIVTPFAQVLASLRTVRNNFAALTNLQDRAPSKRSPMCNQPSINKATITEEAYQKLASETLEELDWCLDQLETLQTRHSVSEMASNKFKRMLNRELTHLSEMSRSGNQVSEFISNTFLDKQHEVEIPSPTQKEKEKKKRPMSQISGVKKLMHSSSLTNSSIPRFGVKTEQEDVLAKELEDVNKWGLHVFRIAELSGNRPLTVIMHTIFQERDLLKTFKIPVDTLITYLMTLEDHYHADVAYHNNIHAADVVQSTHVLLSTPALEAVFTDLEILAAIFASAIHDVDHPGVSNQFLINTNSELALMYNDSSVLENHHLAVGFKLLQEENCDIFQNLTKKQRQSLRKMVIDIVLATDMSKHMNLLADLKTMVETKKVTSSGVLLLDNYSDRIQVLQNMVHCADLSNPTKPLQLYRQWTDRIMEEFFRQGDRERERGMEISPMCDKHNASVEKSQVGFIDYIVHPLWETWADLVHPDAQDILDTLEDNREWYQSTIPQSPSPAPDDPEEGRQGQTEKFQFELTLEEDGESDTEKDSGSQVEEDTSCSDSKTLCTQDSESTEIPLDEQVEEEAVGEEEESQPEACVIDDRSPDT
From the text: Confirmatory Test for Phosphodiesterase (PDE) 4 Inhibitory Activity
(1) Mass Preparation of Plasmids
Plasmids containing genes coding for human PDE4D (HPDE4D) (stored in Otsuka America Pharmaceutical, Inc., Maryland Research Laboratories) were transformed into Escherichia coli, and mass cultured. The plasmids were then purified using EndoFree™ Plasmid Mix Kit (Qiagen).
(2) Mass expression and purification of PDE4D
African green monkey kidney-derived COS-7 cells (RCB 0539) were subcultured in a DMEM medium containing 100 units/ml penicillin, […] streptomycin and 10% FBS. The plasmids prepared in (1) were transfected into the cells, using LipofectAMINE™ 2000 Reagent (hereinafter referred to as “LF2000”, a product of Invitroge), according to the attached protocol. For comparison, pcDNA3.1 was transfected as a control vector. The COS-7 cells were inoculated into 10 cm diameter petri dishes on the day before transfection, so that the cells reached 90% confluence on the day of transfection. Twelve micrograms of the plasmids diluted with 0.9 ml of OPTI-MEM I (Invitrogen) (a plasmid solution; Solution A) and 30 μl of LF2000 diluted with 0.9 ml of OPTI-MEM I (a LF2000 solution; Solution B) were prepared per petri dish, and allowed to stand at room temperature for 5 minutes. Solutions A and B were then mixed together and allowed to stand at room temperature for 20 minutes. The mixture was added to the cultured cells, and incubation was performed overnight at 37° C. in an atmosphere of 5% CO2. The culture medium was changed on the following day, incubation was continued overnight, and the cells were collected by the following procedure. First, the cells were washed once with PBS (Sigma), and 2 ml of Trypsin-EDTA solution (Sigma) was added per petri dish, spread over the dish and removed. The cells were then allowed to stand at 37° C. for 2 to 3 minutes, separated from the petri dish and suspended in a medium. The suspension was placed in a centrifuge tube, and centrifuged at 200×g and 4° C. for 5 minutes. The supernatant was then removed. The cells were further washed with PBS and stored at −80° C. A KHEM buffer (50 mM Hepes, 50 mM KCl, 10 mM EGTA, 1.92 mM MgCl2, pH 7.2) containing 1 mM DTT, 40 μg/ml PMST, 156 μg/ml benzamidine, 1 μg/ml apotinin, 1 μg/ml leupeptin, 1 μg/ml pepstatin A, and 1 μg/ml antipain was added to the cells that had been stored, and the resulting mixture was placed in a glass homogenizer and homogenized on ice. The cell suspension was centrifuged at 100×g and 4° C. for 5 minutes, and the supernatant was further centrifuged at 100,000×g for 1 hour. Thereafter, the supernatant was dispensed into new tubes as a PDE4D enzyme solution, and stored in an ultra-low-temperature freezer. The protein concentration of the PDE4D enzyme solution was then measured.
(3) Determination of Dilution Factor of PDE4D Enzyme Solution
The PDE4D enzyme solution prepared in (2) was diluted 10-, 25-, 50-, 100-, 200-, 400- and 800-fold with 20 mM Tris-HCl (pH 7.4), and the PDE4D activities of the diluted enzyme solutions were measured by the method described in (4) to determine the optimum dilution factor to obtain a PDE4D enzyme solution in which degraded cAMP constituted 10 to 30% of the total cAMP.
(4) Measurement of PDE4D Inhibitory Activity
The necessary amount of each test substance was weighed out and dissolved in 100% DMSO to a concentration of 10 mM. The resulting solutions were stored in a freezer as test substance stock solutions. Before the inhibitory activity measurement, the stock solutions were melted, diluted 2-fold with 100% DMSO to a concentration of 5 mM, and further diluted with 100% DMSO to obtain test substance solutions with 10 graded concentrations. Each test substance solution was added to a 1.2 ml tube containing 23 μl of 20 mM Tris-HCl (pH 7.4). […]

[2] = test system: TNF-α production; assay: Measurement of TNF-α production inhibitory activity; type: cell-based; conditions: PBMC; concentration that inhibits TNF-α production by 50%; LPS (1 μg/ml)-stimulated human peripheral blood mononuclear cells, 24 hours, ELISA
Experimental: Measurement of TNF-α Production Inhibitory Activity
The following tests were performed to evaluate TNF-α production inhibitory activity.
(1) Separation of Human Peripheral Blood Mononuclear Cells
A peripheral blood sample was obtained from a healthy adult donor who had signed a written informed consent. Thirty milliliters of the blood sample, which had been heparinized, was dispensed into a Leucosep tube (Greiner) containing 16 ml of a lymphocyte separation solution (Nakarai Chemical, Ltd.) under the filter barrier, and centrifuged at 1000×g for 15 minutes.
The intermediate layer corresponding to a mononuclear cell fraction was collected in a 50 ml centrifuge tube, and washed twice with a RPMI 1640 medium. After trypan blue staining, the viable count was determined and adjusted to 2×10^6 cells/ml with RPMI 1640 medium.
(2) Induction of TNF-α Production
E. coli (Serotype 055:B5)-derived LPS, which had been dissolved in a RPMI 1640 medium to a concentration of 5 mg/ml, sterilized by filtration and stored in a freezer, was melted and diluted with a RPMI 1640 medium to 10 μg/ml. The test substances were dissolved in DMSO to obtain solutions with a concentration of […] the final use concentration. One microliter of each of the graded concentration test substance solutions, 149 μl of RPMI 1640 medium, 50 μl of LPS solution (final concentration: 1 μg/ml), 50 μl of fetal bovine serum, and […] of the peripheral blood mononuclear cell suspension were dispensed to each well of a 48-well plate and incubated at 37° C. for 24 hours.
(3) Measurement of TNF-α Concentration
After completion of the incubation, the culture supernatant was collected from each well, and the TNF-α concentration in the supernatant was measured by ELISA method (Human TNF-α Eli-pair, Diaclone).

Row | SMILES | IC50 [1] [nM] | IC50 [2] [nM] | melting point [°C]
1 | CCOc1ccc(-c2nc(/C=C/C(=O)c3ccccc3OC)cs2)cc1OCC [Example 1, (E)-3-[2-(3,4-diethoxyphenyl)thiazole-4-yl]-1-(2-methoxyphenyl)propenone] | 23.6 | 8 | 130 to 131
2 | CCOc1ccc(-c2nc(CCC(=O)c3ncccc3OC)cs2)cc1OCC [Example 88, 3-[2-(3,4-diethoxyphenyl)thiazole-4-yl]-1-(3-methoxypyridine-2-yl)-1-propanone] | 0.4 |  | 79.2 to 79.7
3 | CCOc1ccc(-c2nc(CCC(=O)c3ccccc3OC)cs2)cc1OCC [Example 89, 3-[2-(3,4-diethoxyphenyl)thiazole-4-yl]-1-(2-methoxyphenyl)-1-propanone] |  | 7 | 68.9 to 69.3
4 | CCOc1ccc(-c2nc(CCC(=O)c3ccccc3)cs2)cc1OCC [Example 91] |  | 543 | 113.3 to 113.6
5 | CCOc1ccc(-c2nc(CCC(=O)c3ccccc3C(F)(F)F)cs2)cc1OCC [Example 99] | 29 |  | 91.7 to 93
6 | CCOc1ccc(-c2nc(CCC(=O)c3ccccc3OCC)cs2)cc1OCC [Example 100] | 2.3 |  | 84.3 to 86.1
7 | CCOc1ccc(-c2nc(CCC(=O)c3ccc(Cl)cc3OC)cs2)cc1OCC [Example 106] | 5.7 |  | 102.8 to 104.2
8 | CCOc1ccc(-c2nc(CCC(=O)c3ccccc3C)cs2)cc1OCC [Example 107] | 5.8 |  | 107.1 to 107.4
9 | CCOc1ccc(-c2nc(CCCc3ncccc3OC)cs2)cc1OCC.Cl.Cl [Example 238, 2-{3-[2-(3,4-diethoxyphenyl)thiazole-4-yl]propyl}-3-methoxypyridine dihydrochloride] | 7.2 |  | 169.4 to 171.2
10 | CCOc1ccc(-c2nc(CCC(=O)c3ccccc3C#N)cs2)cc1OCC [Example 239, 2-{3-[2-(3,4-diethoxyphenyl)thiazole-4-yl]propionyl}benzonitrile] | 9.7 |  | 113.7 to 114.8
